Measured values from patent US4587046A, “Drug-carrier conjugates” (The Regents of the University of California, priority 1982, dated 1986).
Square brackets hold non-standard residues; d marks the D form. Peptide text beside a SMILES is read from it. * marks the point of attachment. Phe(4-NH2) = Nc1ccc(C[C@H](N)C(=O)O)cc1; X1 = CC(CCCCC(=O)*)NCC(O)c1ccc(O)c(O)c1; Nva(5-OH) = N[C@@H](CCCO)C(=O)O; Boc = CC(C)(C)OC(=O)*

Tests used:
[1] = tested on: S49 cells; assay: wild type S49 cell assay, cyclic AMP accumulation (relative beta adrenergic activity); assay type: cell-based; details: in vitro, ratio of KA for isoproterenol to KA for the compound, isoproterenol = 1
Experimental: The biological activity of the conjugates of the invention was tested in a wild type S49 cell assay. The assay is indicative of the relative beta adrenergic activity of the compound. The activity of each conjugate tested was compared to the activity of isoproterenol as the base standard. In the test, S49 cells were centrifuged and then resuspended (2 to 2.5×10^6 cells per ml.) in Dulbecco's modified Eagle medium (13.3 g per liter) and 20 mM Hepes (pH 7.4)+0.1% bovine serum albumin. The S49 suspensions were incubated at 37° C. for 10 minutes without the conjugate and then added to tubes with or without the conjugate for an additional 6 minutes. The reaction was stopped by cooling on ice. Incubation without the conjugates present established a base line. After isolation of a pellet of cells by centrifugation they were resuspended and boiled. Aliquots were then used for the competitive binding assay for cyclic AMP described by Gilman in the Procedings of the National Academy of Sciences USA 67, 305-312 (1970). Results were plotted as pmol cyclic AMP accumulated per 10^7 cells in excess of base line as a function of the log of the concentration of the analog. | ^a Biological activity was measured by cyclic AMP accumulation in S49 | cells. Relative activity is expressed as the ration of KA for | isoproterenol to KA for the compound.

[2] = tested on: rat blood pressure; assay: in vivo reduction of rat blood pressure after injection into the femoral vein; parameters: species or system male Sprague-Dawley rats; details: 0.001 to 10.0 mg/kg, ratio of molar ED50 of isoproterenol to molar ED50 of the compound (dose that reduces rat blood pressure by 50%)
Experimental: In addition to the in vitro testing set forth above, in vivo testing was also conducted on a number of conjugates of the invention. The tests were conducted by injecting various doses of the test conjugate into the femoral vein of rats and thereafter recording changes in heart rate, arterial pulse pressure and mean pressure.
More specifically, male Sprague-Dawley rats weighing 280-350 g had their femoral arteries connected to a Statham P-23 pressure transducer, which was in turn recorded on a Beckman Dynograph model R511A. Venus cannula were inserted in the femoral veins. Two syringes were attached to the veins via a 3-way stopcock. One syringe contained heparinized saline (40 units/ml) while the other contained the conjugate to be tested.
All cannulas were periodically flushed with the heparinized saline to prevent clots from forming. After the blood pressure and heart rate had stabilized, a volume of heparinized saline corresponding to the volume of drug conjugate the animal was to receive, was injected, and the response observed. Then various doses of the test drug conjugate were injected with a minimum interval of ten minutes between doses. The dose range was from 0.001 to 10.0 mg/kg, with the doses always being administered in increasing amounts. From the drug injections, a dose-response curve was obtained. The response curves were then compared to the animals' response to isoproterenol administered under the same conditions. Table 3 below presents the results of these in vivo tests:
^a Biological activity in vivo was measured as the effective dose tha
reduces rat blood pressure by 50%. Relative activity is expressed as the
ratio of the molar ED50 of isoproterenol to the molar ED50 of […]

Row | Compound | Activity relative to isoproterenol [1] | In Vivo Activity Relative to Isoproterenol [2]
1 | CC(=O)N[C@@H](Cc1ccc(NC(=O)CCCCC(C)NCC(O)c2ccc(O)c(O)c2)cc1)C(=O)NCCCO (some centres unmarked) [A] | 9.0 × 10^-2 | –
2 | CC(=O)N[C@H](Cc1ccc(NC(=O)CCCCC(C)NCC(O)c2ccc(O)c(O)c2)cc1)C(=O)NCCCO (some centres unmarked) [B] | 4.0 × 10^-1 | –
3 | CC(=O)N[C@@H](Cc1ccc(NC(=O)CCCCC(C)NCC(O)c2ccc(O)c(O)c2)cc1)C(=O)NCC(=O)O (some centres unmarked) [C] | 4.4 × 10^-1 | –
4 | CNC(=O)CNC(=O)[C@H](Cc1ccc(NC(=O)CCCCC(C)NCC(O)c2ccc(O)c(O)c2)cc1)NC(C)=O (stereo partly drawn) [D, N^α -Acetyl-p-[6-(β-3',4-Dihydroxyphenyl-β-Hydroxy)-Ethylamino-n-Heptanoylamino]-L-Phenylalanyl-Glycyl-Methylamide] | 1.1 | –
5 | CNC(=O)CNC(=O)[C@H](Cc1ccc(NC(=O)CCCCC(C)NCC(O)c2ccc(O)c(O)c2)cc1)NC(=O)OC(C)(C)C (stereo partly drawn) [E, N^α -t-Butyloxycarbonyl-p-[6-(β-3',4'-Dihydroxyphenyl-β-Hydroxy)-Ethylamino-n-Heptanoylamino]-L-Phenylalanyl-Glycyl-Methylamide] | 4.1 | 3.74
6 | CNC(=O)CNC(=O)[C@@H](N)Cc1ccc(NC(=O)CCCCC(C)NCC(O)c2ccc(O)c(O)c2)cc1 (some centres unmarked) [F] | 1.3 × 10^-4 | –
7 | CNC(=O)[C@H](Cc1ccc(NC(=O)CCCCC(C)NCC(O)c2ccc(O)c(O)c2)cc1)NC(=O)CNC(=O)OC(C)(C)C (some centres unmarked) [G] | 6.8 × 10^-1 | .92
8 | CNC(=O)CC[C@H](NC(C)=O)C(=O)N[C@@H](Cc1ccc(NC(=O)CCCCC(C)NCC(O)c2ccc(O)c(O)c2)cc1)C(=O)NCC(=O)NC (some centres unmarked) [H] | 3.7 × 10^-6 | 1.77
9 | CNC(=O)CNC(=O)[C@H](Cc1ccc(NC(=O)CCCCC(C)NCC(O)c2ccc(O)c(O)c2)cc1)NC(=O)[C@H](CCCO)NC(C)=O (some centres unmarked) [I] | 8.0 × 10^-5 | 1.48
10 | CNC(=O)CNC(=O)[C@H](Cc1ccc(NC(=O)CCCCC(C)NCC(O)c2ccc(O)c(O)c2)cc1)NC(=O)[C@H](CCCNC(N)=O)NC(C)=O (some centres unmarked) [J] | – | .79
11 | CNC(=O)CNC(=O)[C@H](Cc1ccc(NC(=O)CCCCC(C)NCC(O)c2ccc(O)c(O)c2)cc1)NC(=O)[C@H](CCCNC(N)=O)NC(=O)OC(C)(C)C (some centres unmarked) [K] | 3.8 × 10^-5 | .22
12 | CNC(=O)CC[C@H](NC(C)=O)C(=O)N[C@@H](Cc1ccc(NC(=O)CCCC(C)NCC(O)c2ccc(O)c(O)c2)cc1)C(=O)N[C@@H](CCC(=O)NC)C(=O)NC (some centres unmarked) [L] | 4.5 × 10^-6 | –
13 | CNC(=O)CC[C@H](NC(C)=O)C(=O)N[C@@H](Cc1ccc(NC(=O)CCCCC(C)NCC(O)c2ccc(O)c(O)c2)cc1)C(=O)N[C@@H](CCC(=O)NC)C(=O)NC (stereo partly drawn) [M, N^α -Acetyl-N'-Methyl-L-Glutaminyl-p-[6-(β-3',4'-Dihydroxyphenyl-β-Hydroxy)-Ethylamino-n-Heptanoylamino]-L-Phenylalanyl-N'-Methyl-L-Glutaminyl-Methylamide] | 2.3 × 10^-5 | –
14 | CNC(=O)CC[C@H](NC(C)=O)C(=O)N[C@@H](Cc1ccc(NC(=O)CCCCCC(C)NCC(O)c2ccc(O)c(O)c2)cc1)C(=O)N[C@@H](CCC(=O)NC)C(=O)NC (some centres unmarked) [N] | 8.6 × 10^-6 | –
15 | CNC(=O)CNC(=O)[C@H](Cc1ccc(NC(=O)CCCCC(C)NCC(O)c2ccc(O)c(O)c2)cc1)NC(=O)[C@H](CCCO)NC(=O)[C@H](CCCO)NC(=O)[C@H](CCCO)NC(=O)OC(C)(C)C (some centres unmarked) [O] (Boc-[Nva(5-OH)][Nva(5-OH)][Nva(5-OH)][Phe(4-NH2)](X1)G-NHMe) | 1.0 | .76
16 | CNC(=O)CNC(=O)[C@H](CCCO)NC(=O)[C@H](CCCO)NC(=O)[C@H](CCCO)NC(=O)[C@H](Cc1ccc(NC(=O)CCCCC(C)NCC(O)c2ccc(O)c(O)c2)cc1)NC(=O)OC(C)(C)C (some centres unmarked) [P] (Boc-[Phe(4-NH2)](X1)[Nva(5-OH)][Nva(5-OH)][Nva(5-OH)]G-NHMe) | 7.9 × 10^-1 | .59
